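Interpolation was linear, between the two tested concentrations surrounding the appropriate level; five concentrations were tested over 48 hours in 96-well plates. GI50 is the concentration that inhibits growth by half.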 Calls of active or inactive are those of the source. Cut-off read from the data, not from the text of the source: active = GI50 up to about 1.1 µM and inactive = higher.
Key:
Experiment in all cases: growth of human tumour cells (NCI), 48 h
EKVX = tested on: EKVX
HOP-92 = tested on: HOP-92
OVCAR-4 = tested on: OVCAR-4
M14 = tested on: M14
MDA-N = tested on: MDA-N
HOP-62 = tested on: HOP-62
UACC-62 = tested on: UACC-62
OVCAR-3 = tested on: OVCAR-3
NCI-H23 = tested on: NCI-H23
SNB-75 = tested on: SNB-75
SW-620 = tested on: SW-620
SF-295 = tested on: SF-295
HCT-15 = tested on: HCT-15
PC-3 = tested on: PC-3
RXF 393 = tested on: RXF 393
DU-145 = tested on: DU-145
ACHN = tested on: ACHN
NCI/ADR-RES = tested on: NCI/ADR-RES
OVCAR-8 = tested on: OVCAR-8
CAKI-1 = tested on: CAKI-1

SMILES | GI50 (EKVX) | GI50 (HOP-92) | GI50 (OVCAR-4) | GI50 (M14) | GI50 (MDA-N) | GI50 (HOP-62) | GI50 (UACC-62) | GI50 (OVCAR-3) | GI50 (NCI-H23) | GI50 (SNB-75) | GI50 (SW-620) | GI50 (SF-295) | GI50 (HCT-15) [µM] | GI50 (PC-3) | GI50 (RXF 393) | GI50 (DU-145) | GI50 (ACHN) | GI50 (NCI/ADR-RES) | GI50 (OVCAR-8) | GI50 (CAKI-1)
CN(C)CCCN1c2ccc3ccccc3c2Sc2cccc(Cl)c21 | 2.38 µM (inactive) | 1.51 µM (inactive) | 4.4 µM (inactive) | 1.89 µM (inactive) | 2.38 µM (inactive) | 2.85 µM (inactive) | 2 µM (inactive) | 2.89 µM (inactive) | 10.6 µM (inactive) | 3.6 µM (inactive) | 2.04 µM (inactive) | 3.91 µM (inactive) | 4.33 | 3.01 µM (inactive) | 3.82 µM (inactive) | 4.54 µM (inactive) | 3.38 µM (inactive) | 5.56 µM (inactive) | 4.33 µM (inactive) | 5.33 µM (inactive)
O=C(O)C/C(=C\c1ccccc1)C(=O)O | > 100 µM (inactive) | > 100 µM (inactive) | > 100 µM (inactive) | > 100 µM (inactive) | > 100 µM (inactive) | > 100 µM (inactive) | > 100 µM (inactive) | > 100 µM (inactive) | > 100 µM (inactive) | > 100 µM (inactive) | > 100 µM (inactive) | > 100 µM (inactive) | > 100 | > 100 µM (inactive) | > 100 µM (inactive) | > 100 µM (inactive) | > 100 µM (inactive) | > 100 µM (inactive) | > 100 µM (inactive) | > 100 µM (inactive)
O=C(O)C1(Nc2ccc(Cl)cc2)CCCC1 | > 100 µM (inactive) | > 100 µM (inactive) | > 100 µM (inactive) | > 100 µM (inactive) | > 100 µM (inactive) | > 100 µM (inactive) | > 100 µM (inactive) | > 100 µM (inactive) | > 100 µM (inactive) | > 100 µM (inactive) | > 100 µM (inactive) | 97.9 µM (inactive) | 11.5 | > 100 µM (inactive) | > 100 µM (inactive) | > 100 µM (inactive) | > 100 µM (inactive) | > 100 µM (inactive) | > 100 µM (inactive) | > 100 µM (inactive)
C/C=C\C(CC(=O)NCCc1cn(C(=O)OCc2ccccc2)c2ccccc12)CC(=O)OC (stereo not given) | 45.2 µM (inactive) | 69 µM (inactive) | 35.9 µM (inactive) | 86.7 µM (inactive) | 79.1 µM (inactive) | > 100 µM (inactive) | 90.4 µM (inactive) | 69.7 µM (inactive) | 89.5 µM (inactive) | > 100 µM (inactive) | > 100 µM (inactive) | 57 µM (inactive) | > 100 | 50.2 µM (inactive) | 56.4 µM (inactive) | > 100 µM (inactive) | > 100 µM (inactive) | 41.8 µM (inactive) | > 100 µM (inactive) | > 100 µM (inactive)
CC(C)C(OC(=O)c1ccc(NCc2cc(O)ccc2O)cc1)C(C)C | 1.81 µM (inactive) | 0.424 µM (active) | 1.47 µM (inactive) | 2.28 µM (inactive) | 2.39 µM (inactive) | 7.94 µM (inactive) | 1.29 µM (inactive) | 1.36 µM (inactive) | 1.89 µM (inactive) | 0.746 µM (active) | 1.96 µM (inactive) | 3.74 µM (inactive) | 0.317 | 1.32 µM (inactive) | 0.479 µM (active) | 7.01 µM (inactive) | 1.02 µM (active) | 1.42 µM (inactive) | 1.4 µM (inactive) | 0.218 µM (active)
C#C[C@]1(O)CC[C@H]2[C@@H]3CCC4=C/C(=N\OCCN5CCCC5)CC[C@]4(C)[C@H]3CC[C@@]21C | 12.9 µM (inactive) | 29.1 µM (inactive) | 20.6 µM (inactive) | 9.82 µM (inactive) | 3.25 µM (inactive) | 10.9 µM (inactive) | 10.4 µM (inactive) | 10.9 µM (inactive) | 12 µM (inactive) | 10.8 µM (inactive) | 13.5 µM (inactive) | 3.72 µM (inactive) | 13.2 | 6.28 µM (inactive) | 13.5 µM (inactive) | 19 µM (inactive) | 17 µM (inactive) | 9.95 µM (inactive) | 17.1 µM (inactive) | 12.4 µM (inactive)
OCc1ccn2c1[C@@H](O)CC2 | > 100 µM (inactive) | > 100 µM (inactive) | > 100 µM (inactive) | > 100 µM (inactive) | > 100 µM (inactive) | > 100 µM (inactive) | > 100 µM (inactive) | > 100 µM (inactive) | > 100 µM (inactive) | > 100 µM (inactive) | > 100 µM (inactive) | > 100 µM (inactive) | > 100 | > 100 µM (inactive) | > 100 µM (inactive) | > 100 µM (inactive) | > 100 µM (inactive) | > 100 µM (inactive) | > 100 µM (inactive) | > 100 µM (inactive)
O=C(c1ccccc1)c1ccc(-n2c3ccccc3c3ccc4c(c32)C(=O)C=CC4=O)cc1 | 11 µM (inactive) | 3.48 µM (inactive) | 16.3 µM (inactive) | 9.2 µM (inactive) | 16.5 µM (inactive) | 16.4 µM (inactive) | 13.1 µM (inactive) | 7.59 µM (inactive) | 12.8 µM (inactive) | 22.7 µM (inactive) | 3.88 µM (inactive) | 15.7 µM (inactive) | 11.3 | 11.7 µM (inactive) | 5.24 µM (inactive) | 10.5 µM (inactive) | 4.38 µM (inactive) | 18.8 µM (inactive) | 7.24 µM (inactive) | 2.07 µM (inactive)
CC1(C)C=C(S(=O)(=O)c2ccccc2)Oc2ccccc2O1 | 23.1 µM (inactive) | 24.5 µM (inactive) | 37.4 µM (inactive) | 46 µM (inactive) | 35.7 µM (inactive) | > 100 µM (inactive) | 38.4 µM (inactive) | 50.4 µM (inactive) | 41.3 µM (inactive) | 16.7 µM (inactive) | 75.9 µM (inactive) | 33 µM (inactive) | 33.3 | 27.9 µM (inactive) | 34.8 µM (inactive) | 91 µM (inactive) | 34.8 µM (inactive) | 52.1 µM (inactive) | 32.1 µM (inactive) | 69.2 µM (inactive)
COc1cc2c(c(O)c1C)C(=O)C(Cl)=CC2=O | 16 µM (inactive) | 4.71 µM (inactive) | 11.8 µM (inactive) | 6.47 µM (inactive) | 4.07 µM (inactive) | 43.2 µM (inactive) | 7.23 µM (inactive) | 9.91 µM (inactive) | 10.2 µM (inactive) | 16.4 µM (inactive) | 3.06 µM (inactive) | 18.7 µM (inactive) | 11.5 | 15.2 µM (inactive) | 6.31 µM (inactive) | 6.46 µM (inactive) | 6.4 µM (inactive) | 22.6 µM (inactive) | 18.8 µM (inactive) | 5.45 µM (inactive)
CCC1(O)C=CC(=O)C=C1 | 55.1 µM (inactive) | 31.8 µM (inactive) | 23.1 µM (inactive) | 17.5 µM (inactive) | 28.8 µM (inactive) | 27.7 µM (inactive) | 17.2 µM (inactive) | 27.5 µM (inactive) | 24.9 µM (inactive) | 33.3 µM (inactive) | 36.7 µM (inactive) | 33.9 µM (inactive) | 17.9 | 20.9 µM (inactive) | 18.4 µM (inactive) | 23.9 µM (inactive) | 20.6 µM (inactive) | 24 µM (inactive) | 26.7 µM (inactive) | 31.4 µM (inactive)
Cc1ccc(-n2cc(-c3ccc(Cl)cc3)c3c(NN)ncnc32)cc1 | 3.3 µM (inactive) | 2.97 µM (inactive) | 1.73 µM (inactive) | 1.38 µM (inactive) | 8.83 µM (inactive) | 2.43 µM (inactive) | 2.67 µM (inactive) | 0.357 µM (active) | 3.04 µM (inactive) | 1.39 µM (inactive) | 6.07 µM (inactive) | 3.36 µM (inactive) | 4.4 | 5.55 µM (inactive) | 2.75 µM (inactive) | 3.49 µM (inactive) | 3.31 µM (inactive) | 3.64 µM (inactive) | 3.24 µM (inactive) | 4.33 µM (inactive)
O=C1c2cccc3cccc(c23)C(=O)N1CCCNOCCONCCCN1C(=O)c2cccc3cccc(c23)C1=O | > 100 µM (inactive) | 56 µM (inactive) | 86.3 µM (inactive) | 62.4 µM (inactive) | > 100 µM (inactive) | 62.1 µM (inactive) | > 100 µM (inactive) | 94 µM (inactive) | 99.8 µM (inactive) | 42.6 µM (inactive) | 66.4 µM (inactive) | > 100 µM (inactive) | 44 | 55.1 µM (inactive) | 29.4 µM (inactive) | > 100 µM (inactive) | > 100 µM (inactive) | 12.7 µM (inactive) | 43.3 µM (inactive) | 49.3 µM (inactive)
Cc1ccc2nc3sc(=O)sc3nc2c1 [CHINOMETHIONAT] | 14.2 µM (inactive) | 15.5 µM (inactive) | 13.7 µM (inactive) | 16.9 µM (inactive) | 17.4 µM (inactive) | 16.6 µM (inactive) | 17.9 µM (inactive) | 14.5 µM (inactive) | 19.4 µM (inactive) | 19.6 µM (inactive) | 24.1 µM (inactive) | 16.6 µM (inactive) | 15.3 | 14.3 µM (inactive) | 18.1 µM (inactive) | > 100 µM (inactive) | 15.2 µM (inactive) | 14.8 µM (inactive) | 15.3 µM (inactive) | 16.4 µM (inactive)
